Legend:
[1] = tested on: MDA MB 231 (ER−AR−) cells; experiment: CEA-specific CTL lysis assay, MDA MB 231 targets; assay type: cell-based, human; conditions: 10 μM, E:T 30:1, vs vehicle
Protocol: (§1) The HLA-A2-restricted CEA-specific CTL recognizes the CEA peptide epitope […] (SEQ ID NO: 1) (CAP-1). […] The percentage of tumor lysis was calculated as follows: % tumor lysis=[(experimental cpm−spontaneous cpm)/(maximum cpm−spontaneous cpm)]×100.
(§2) OPG expression was inhibited in MDA MB 231 cells using siRNA duplexes targeting OPG sequences and control siRNA duplexes (Origene, Rockville, Md.). MDA-MB-231 cells were transfected with OPG or control siRNA according to the manufacturer's instructions. […] Forty-eight hours post siRNA transfection, the MDA MB 231 cells were also used as target cells in CEA-specific CTL and TRAIL-mediated lysis assays as described.
These cells were then used as target cells for CTL-mediated killing assays utilizing CEA-specific CTLs.

[2] = tested on: MDA MB 231 (ER−AR−) cells; experiment: Apoptosis PCR array (90 genes) in MDA MB 231 cells; assay type: cell-based, human; conditions: 24 hours, qRT-PCR
Protocol: Total RNA was isolated from the cells using the RNeasy Extraction Kit (Qiagen, Valencia, Calif.). RNA was reverse-transcribed into cDNA using the Advantage RT-for-PCR Kit (Clontech, Mountain View, Calif.). cDNA (10 ng) was used in a quantitative real-time (RT) PCR reaction using probes specific for AR (Hs00901571_m1) and GAPDH (4326317E). AR mRNA expression level was calculated as expression relative to GAPDH. […] Total RNA was isolated from the cells using the RNeasy Extraction Kit. RNA was reverse-transcribed into cDNA using the RT^2 First Strand Kit (SA Biosciences, Valencia, Calif.). Relative mRNA expression levels of 90 genes involved in apoptosis were assessed using an apoptosis PCR array (SA Biosciences) per the manufacturer's instructions. RT-PCR was performed on the 7300 Real-Time PCR System (Applied Biosystems, Carlsbad, Calif.).
OPG is a decoy receptor for receptor activator of nuclear factor kappa-B ligand (RANKL) which inhibits RANKL activation of nuclear factor kappa-B induced apoptosis.

LNCaP cells [3] = experiment: PSA-specific CD8+ T-cell killing, LNCaP targets; conditions: 10 μM, 48 hours, E:T 30:1, P<0.01
Protocol: At specific time points, cells were harvested and counted. Equal numbers of effector target cells from all treatment were plated with respective cytotoxic T-cells.

LNCaP cells [4] = experiment: Apoptosis PCR array (96 genes) in LNCaP cells; assay type: cell-based, human
Protocol: The properties of ADT that induce immunogenic modulation and sensitize prostate tumor cells to immune-mediated attack are novel and have not been previously described. It was hypothesized that modulation of apoptotic genes might be part of the mechanism of action of ADT-induced CTL sensitization. […] In particular, gene expression was assessed using an apoptosis PCR array (SA Biosciences, Valencia, Calif.) as per the manufacturer's instructions. RT-PCR was performed on the 7300 Real-Time PCR System (Applied Biosystems, Carlsbad, Calif.). Where indicated, values were calculated as expression relative to GAPDH, as previously described (Ardiani et al., Cancer Res., 74(7): 1945-1957 (2014))

NAIP = NAIP immunohistochemistry in LNCaP xenografts in nude mice; assay type: in vivo; conditions: 10 mg/day, 7 days
Excerpt: To examine the reduced expression of NAIP in vivo, either LNCaP or PC-3 cells were transplanted into […] nude mice (Charles River, Wilmington, Mass.) (s.c. in the right flank with 5×10^6 LNCaP or PC-3 prostate tumor cells). […] After 7 days of treatment, tumors were subjected to immunohistochemistry staining to detect the presence and intensity of NAIP expression. Specifically, NAIP expression was detected via immunohistochemistry using a rabbit polyclonal antibody to NAIP (Novus Bio, Littleton, Colo.) according to the manufacturer's instructions. Entire slides were digitally scanned by an Aperio ScanScope CS system and analyzed by Aperio ImageScope Viewer software (Aperio Technologies Inc., Vista, Calif.). Statistical analysis was performed using 3-7 murine tumors, each prepared as a complete stained tumor section. Positive tumor regions were determined using the Positive Pixel Count v9 algorithm. Negative controls included omission of primary antibody with PBS and matched rabbit isotype antibody. In all cases, necrotic areas of tumor were excluded from analysis.

LNCaP cells [5] = experiment: CEA-specific CTL lysis assay, LNCaP targets; assay type: cell-based, human; conditions: 10 μM, 48 hours, E:T 30:1, P<0.0001
Excerpt: To evaluate the importance of DAPK1, DAPK1 siRNA was used to reduce the expression of DAPK1.

PSA = experiment: RT-PCR of PSA mRNA in LNCaP cells; assay type: cell-based, human; conditions: 10 μM, 48 hours, P<0.0001
BT549 (ER−AR+) cells = experiment: Tumor cell proliferation, BT549; assay type: cell-based, human; conditions: 10 μM; 48 or 72 hours; P<0.01 vs vehicle; to a greater degree than ZR75-1
Protocol: At the indicated time points, cells were harvested and the number of viable cells was determined by trypan blue exclusion.

[6] = tested on: MDA MB 231 (ER−AR−) cells; experiment: TRAIL-mediated lysis assay, MDA MB 231 targets; assay type: cell-based, human; conditions: 10 μM, 500 ng/ml KillerTRAIL, P<0.01
Protocol: as §1, §2

[7] = tested on: murine prostate carcinomas; conditions: cited from earlier work
[8] = tested on: PC-3 (AR−, HLA-A24) cells; experiment: Cell proliferation and viability by trypan blue exclusion, PC-3; assay type: cell-based, human; conditions: 10 μM
Protocol: Cells were harvested 24, 48, or 72 h after exposure, and the total number of adherent viable cells was determined by trypan blue exclusion. Viability was confirmed by 7AAD staining.

LNCaP/AR(cs) cells = experiment: CEA- or PSA-specific CD8+ T-cell killing, LNCaP/AR(cs) targets; assay type: cell-based, human
[9] = apoptosis PCR array, negative = down-regulated

## enzalutamide
[1]
  sensitivity to CEA-specific CTL-mediated lysis: capable of increasing the sensitivity
[2]
  osteoprotegerin (OPG) gene down-regulated: ~25 fold
LNCaP cells [3]
  sensitivity to PSA-specific T-cell killing: significantly improved their sensitivity
LNCaP cells [4]; [9]
  CASP1 (Caspase 1) gene expression change: −2.17 fold
  CASP5 gene expression change: −3.50 fold
  CASP8 gene expression change: −2.96 fold
  CD27 gene expression change: −2.26 fold
  DAPK1 gene expression change: −6.53 fold
  HRK gene expression change: −2.86 fold
  NAIP gene expression change: −13.90 fold
  TNFRSF25 (DR3) gene expression change: −3.70 fold
  TNFSF8 gene expression change: −3.50 fold
LNCaP cells [4]; rounded from Table 1
  DAPK1 down-regulated: 6.5 fold
  NAIP down-regulated: 14 fold
NAIP; immunohistochemistry
  NAIP staining in LNCaP tumors vs untreated mice: much less intense staining
NAIP; LNCaP xenografts, P<0.01
  decrease of overall population of tumor cells expressing NAIP: 1.5 fold
  increase in tumor area that did not express NAIP: 2.2 fold
LNCaP cells [5]
  sensitivity to CEA-specific CD8+ T-cell killing: significantly enhanced the sensitivity
PSA
  reduction in levels of PSA mRNA: 5.5 fold
BT549 (ER−AR+) cells
  proliferation of BT549 cells: significantly inhibited the proliferation
[6]
  sensitivity to Trail-mediated lysis: significantly improved the sensitivity
[7]; Ardiani et al. 2013
  number or function of T-cells: did not alter the number or function of T-cells
[7]; murine prostate carcinomas (Ardiani et al. 2013)
  MHC-I and Fas on the surface of tumor cells: up-regulated MHC-I and Fas
[8]; trypan blue exclusion after 3 days of drug exposure
  viability of PC-3 cells: Neither enzalutamide nor abiraterone affected the viability
[8]; vs vehicle (DMSO)
  proliferation of PC-3 cells: did not inhibit the proliferation
LNCaP/AR(cs) cells; 10 μM, CEA- or PSA-specific CD8+ T-cells, P<0.01
  sensitivity to T-cell killing: significantly improved the cells' sensitivity
LNCaP/AR(cs) cells; 30 μM, P<0.01, no significant difference to 10 μM
  sensitivity to T-cell killing: significantly improved the cells' sensitivity
